# Entries after “also recorded” stand apart in the source; their conditions may differ. Bridge positions count the residues as written; N and C are the ends. Peptide text beside a SMILES is read from it.
# Tests used:
# IR wild-type (WT) = target: T1, IR wild-type (WT) (Homo sapiens, UniProt P06213); experiment: IR activation (auto-phosphorylation) assay in 293 FT cells expressing IR WT; type: cell-based
# T1 construct: expressed in transfected cells; host or cells: 293 FT cells
# Experimental: The insulin receptor signaling assay was performed as described earlier with some modifications. For the activation assay, the short isoform of human IR in pCS2-MYC was used as described previously. Plasmid transfections into 293 FT cells were performed with Lipofectamin™ 2000 (Invitrogen).
# (§1) The cells were incubated with the lysis buffer B [50 mM Hepes pH 7.4, 150 mM NaCl, 10% Glycerol, 1% Triton X-100, 1 mM EDTA, 100 mM sodium fluoride, 2 mM sodium orthovanadate, 20 mM sodium pyrophosphate, 0.5 mM dithiothreitol (DTT), 2 mM phenylmethylsulfonyl fluoride (PMSF)] supplemented with complete Protease Inhibitor Cocktail (Roche), PhosSTOP (Sigma), and 25 U/ml turbo nuclease (Accelagen) on ice for 1 hr. After centrifuge at 20,817 g at 4° C. for 10 min, the concentrations of cell lysate were measured using Micro BCA Protein Assay Kit (Thermo Scientific). About 50-60 μg total proteins were analyzed by SDS-PAGE and quantitative Western blotting. The following antibodies were purchased from commercial sources: Anti-IR-pY1150/1151 (WB, 1:1000; 19H6; labeled as pY IR, Cat. #3024), anti-AKT (WB, 1:1000; 40D4, Cat. #2920), anti-pS473 AKT (WB, 1:1000; D9E, Cat. #4060), anti-ERK1/2 (WB, 1:1000; L34F12, Cat. #4696), anti-pERK1/2 (WB, […]; 197G2, Cat. #4377), anti-IRS1-pS616 (WB, 1:1000; C15H5, Cell Signaling, Cat. #3203); anti-IRS1 (WB, 1:1000; A301-158A, Bethyl Laboratory); anti-IR (WB, 1:500, CT-3, Santa Cruz; labeled as IR for primary hepatocytes and MEFs, Cat. #sc-57342); anti-IR (WB, 1:1000; EPR23566-103; labeled as IR for FIG. 31, ab278100, Abcam); anti-Myc (WB, 1:2000; 9E10, Cat. #11667149001, Roche; labeled as IR for 293 FT cells). For quantitative western blots, anti-rabbit immunoglobulin G (IgG) (H+L) (WB, 1:5000; Dylight 800 conjugates, Cat. #5151) and anti-mouse IgG (H+L) (WB, 1:5000; Dylight 680 conjugates, Cat. #5470) (Cell Signaling) were used as secondary antibodies. The membranes were scanned with the Odyssey Infrared Imaging System (Li—COR, Lincoln, NE).
# IR R14A = target: T2, IR R14A (Homo sapiens, UniProt P06213, R41A); experiment: IR activation assay in 293 FT cells, IR R14A mutant; type: cell-based; conditions: 10 min
# T2 construct: expressed in transfected cells; host or cells: 293 FT cells
# T2 sequence (P06213 28-1370 isoform P06213-2 R41A limits assumed): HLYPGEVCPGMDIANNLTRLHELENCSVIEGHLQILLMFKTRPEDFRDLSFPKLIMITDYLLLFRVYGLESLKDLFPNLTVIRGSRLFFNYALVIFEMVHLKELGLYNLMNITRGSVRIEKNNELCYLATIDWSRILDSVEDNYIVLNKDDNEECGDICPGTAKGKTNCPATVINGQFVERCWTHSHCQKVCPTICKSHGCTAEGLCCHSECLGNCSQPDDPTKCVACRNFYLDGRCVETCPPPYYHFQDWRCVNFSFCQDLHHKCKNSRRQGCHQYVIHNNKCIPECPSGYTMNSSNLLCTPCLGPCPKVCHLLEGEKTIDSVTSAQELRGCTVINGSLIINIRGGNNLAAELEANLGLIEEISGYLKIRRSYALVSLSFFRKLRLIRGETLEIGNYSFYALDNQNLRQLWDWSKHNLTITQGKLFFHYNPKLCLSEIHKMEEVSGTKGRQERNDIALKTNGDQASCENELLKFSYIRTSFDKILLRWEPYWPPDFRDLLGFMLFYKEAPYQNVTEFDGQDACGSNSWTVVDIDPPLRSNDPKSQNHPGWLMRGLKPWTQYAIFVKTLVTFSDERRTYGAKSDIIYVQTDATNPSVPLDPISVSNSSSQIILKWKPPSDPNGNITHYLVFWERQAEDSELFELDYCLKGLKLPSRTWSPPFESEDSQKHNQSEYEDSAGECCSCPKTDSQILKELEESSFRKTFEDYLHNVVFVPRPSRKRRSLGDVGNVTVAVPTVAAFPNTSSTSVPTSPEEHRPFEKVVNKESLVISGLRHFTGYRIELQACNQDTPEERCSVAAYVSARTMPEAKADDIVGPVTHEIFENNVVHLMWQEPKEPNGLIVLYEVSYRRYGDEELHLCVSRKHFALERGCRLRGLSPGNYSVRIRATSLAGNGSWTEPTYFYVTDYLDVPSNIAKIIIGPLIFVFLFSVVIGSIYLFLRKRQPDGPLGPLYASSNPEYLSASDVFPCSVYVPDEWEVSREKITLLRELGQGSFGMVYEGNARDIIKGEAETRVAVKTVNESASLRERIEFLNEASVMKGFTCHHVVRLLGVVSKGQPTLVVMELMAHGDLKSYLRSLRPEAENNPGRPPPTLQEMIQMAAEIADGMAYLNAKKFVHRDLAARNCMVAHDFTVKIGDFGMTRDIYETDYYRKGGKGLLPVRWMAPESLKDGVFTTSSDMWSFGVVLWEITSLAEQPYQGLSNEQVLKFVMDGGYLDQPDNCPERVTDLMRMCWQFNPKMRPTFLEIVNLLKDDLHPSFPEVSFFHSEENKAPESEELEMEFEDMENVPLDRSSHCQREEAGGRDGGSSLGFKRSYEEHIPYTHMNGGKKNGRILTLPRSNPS
# T2 sequence (P06213 763-1382 partner limits assumed): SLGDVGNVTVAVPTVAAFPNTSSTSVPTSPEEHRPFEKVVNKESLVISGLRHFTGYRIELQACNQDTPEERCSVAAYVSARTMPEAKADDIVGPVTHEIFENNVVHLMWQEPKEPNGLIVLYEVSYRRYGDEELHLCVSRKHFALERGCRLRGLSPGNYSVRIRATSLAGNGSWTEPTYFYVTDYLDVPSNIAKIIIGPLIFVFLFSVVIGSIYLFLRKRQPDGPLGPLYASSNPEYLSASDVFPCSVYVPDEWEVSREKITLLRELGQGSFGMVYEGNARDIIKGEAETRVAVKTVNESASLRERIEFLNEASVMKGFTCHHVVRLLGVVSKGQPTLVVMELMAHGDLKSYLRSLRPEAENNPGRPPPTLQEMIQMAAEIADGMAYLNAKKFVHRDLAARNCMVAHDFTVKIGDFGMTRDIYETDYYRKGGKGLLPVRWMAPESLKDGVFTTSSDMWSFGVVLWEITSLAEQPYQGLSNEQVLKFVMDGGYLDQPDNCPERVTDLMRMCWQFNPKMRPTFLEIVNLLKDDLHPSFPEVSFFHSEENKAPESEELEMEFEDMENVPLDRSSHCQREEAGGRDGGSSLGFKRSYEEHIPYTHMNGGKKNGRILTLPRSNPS
# IR E697A = target: T3, IR E697A (Homo sapiens, UniProt P06213, E724A); experiment: IR activation assay in 293 FT cells, IR E697A mutant; type: cell-based; conditions: 10 nM for 10 min
# T3 construct: expressed in transfected cells; host or cells: 293 FT cells
# T3 sequence (P06213 28-1370 isoform P06213-2 E724A limits assumed): as the sequence (P06213 28-1370 isoform P06213-2 R41A limits assumed) above, with A14R, E697A counted along it
# T3 sequence (P06213 763-1382 partner limits assumed): as the sequence (P06213 763-1382 partner limits assumed) above
# IR signaling [1] = experiment: Insulin signaling in vivo (liver, skeletal muscle, WAT lysates, western blot); set-up: species or system mice
# Experimental: 2-3 months old male mice were fasted overnight. […] Livers were removed at 3 min after injection. White adipose tissue and skeletal muscles were removed at 5 min and 7 min after injection, respectively. Tissues were mixed with the lysis buffer B supplemented with complete Protease Inhibitor Cocktail (Roche), PhosSTOP (Sigma), and 25 U/ml turbo nuclease (Accelagen), homogenized with FisherbrandTM Bead Mill homogenizer, and then incubated on ice for 1 hr. After centrifuge at 20,817 g at 4° C. for 30 min, the concentrations of cell lysate were measured using Micro BCA Protein Assay Kit (Thermo Scientific). The lysates were then analyzed by quantitative western blotting.
# IR signaling [2] = experiment: IR signaling in primary mouse hepatocytes; type: cell-based
# Experimental: Primary hepatocytes were isolated from 2-month-old male mice with a standard two-step collagenase perfusion procedure as described earlier with some modifications. […] After 1-2 sec upon appearance of white spots in the liver, the portal vein was cut with scissors to wash out blood, and then the liver was perfused with 30 ml of Liver Digest Medium (Thermo Scientific, Cat. #17703034). Dissected liver was gently washed with low glucose DMEM and transferred to sterile culture dish containing 15 ml Liver Digest Medium. The isolated liver cells were filtered through the 70 μm cell strainer into a 50 ml tube. After centrifuge at 50 g for 5 min at 4° C., cells were washed with cold low glucose DMEM three times. […] After 2 hr., the medium was changed to serum free low-glucose DMEM.
# as §1
# [3] = Chronic treatment by osmotic minipump; type: in vivo, mice
# Source text: 2-month-old male mice were implanted with osmotic minipump releasing Humulin (0.2 U/day), S597 (0.3 U/day), or S597-S20D (0.3 U/day). […] Hepes, N=7; Humulin, N=8; S597, N=7; S597-S20D, N=4. […] Hepes, N=7; Humulin, N=8; S597, N=9; S597-S20D, N=4. Two-way ANOVA followed by Tukey's multiple comparisons test. […] Mean±SEM. Hepes, N=8; Humulin, N=7; S597, N=9; S597-S20D, N=5. […] Hepes, N=4; Humulin and S597 analogs, N=5. two-tailed Student's t-test. All graphs show Mean±SEM.
# To examine the long-term effects of S597 in vivo, C57BL/6J WT mice were implanted with osmotic minipumps releasing either HEPES, Humulin, or mimetics. […] Consistent with previous work, chronic treatment of Humulin increased body weight (FIGS. 11E, 11F).
# MCF7 = experiment: IR signaling in cancer cells, MCF7; type: cell-based; conditions: 10, 100 or 300 nM for 10 minutes
# [4] = WAT, compared to vehicle treated conditions
# [5] = liver, injection via inferior vena cava
# [6] = skeletal muscle, injection via inferior vena cava
# T1 sequence (P06213 28-1370 isoform P06213-2 limits assumed): as the sequence (P06213 28-1370 isoform P06213-2 R41A limits assumed) above, with A14R counted along it
# T1 sequence (P06213 763-1382 partner limits assumed): as the sequence (P06213 763-1382 partner limits assumed) above
smiles,measurement,setting,value
CC[C@H](C)[C@H](NC(=O)[C@H](CCC(N)=O)NC(=O)[C@H](C)NC(=O)[C@H](Cc1c[nH]c2ccccc12)NC(=O)[C@H](CCC(=O)O)NC(=O)[C@H](CCC(=O)O)NC(=O)[C@H](CCC(=O)O)NC(=O)[C@H](CC(C)C)NC(=O)[C@H](CO)NC(C)=O)C(=O)N[C@@H](CCC(=O)O)C(=O)N[C@H]1CSSC[C@@H](C(=O)N2CCC[C@H]2C(=O)N[C@@H](CO)C(=O)N[C@@H](CCC(=O)O)C(=O)N[C@@H](CO)C(=O)N[C@@H](Cc2ccccc2)C(=O)N[C@@H](Cc2ccc(O)cc2)C(=O)N[C@@H](CC(=O)O)C(=O)N[C@@H](Cc2c[nH]c3ccccc23)C(=O)N[C@@H](Cc2ccccc2)C(=O)N[C@@H](CCC(=O)O)C(=O)N[C@@H](CCCNC(=N)N)C(=O)N[C@@H](CCC(N)=O)C(=O)N[C@@H](CC(C)C)C(N)=O)NC(=O)CNC(=O)[C@H](CCCNC(=N)N)NC(=O)CNC(=O)[C@H](Cc2ccc(O)cc2)NC(=O)[C@H](C(C)C)NC(=O)[C@H](CCC(=O)O)NC1=O [S597] (Ac-SLEEEWAQIECEVYGRGCPSESFYDWFERQL-NH2; disulfide 11-18),"IR activation (auto-phosphorylation of IR, pY IR)","IR wild-type (WT); 293 FT cells expressing IR WT, 10 nM for 10 min",as efficiently as insulin
same,difference between the A and B isoforms of IR activation,"IR wild-type (WT); 293 FT cells expressing IR-A or IR-B, 10 min",no significant difference
same,IR activation (pY IR),IR R14A,fully activated
same,IR activation (pY IR),IR E697A,fully activated
same,pAKT level,IR signaling [1]; [4],significantly increased
same,pERK level,IR signaling [1]; [4],neither insulin nor S597 had a statistically significant effect
same,pY IR level,"IR signaling [1]; WAT, injection via inferior vena cava","robust auto-phosphorylation of the IR, albeit with lower potency than insulin"
same,pERK level,IR signaling [1]; [5],increased
same,pY IR level,IR signaling [1]; [5],"robust auto-phosphorylation of the IR, albeit with lower potency than insulin"
same,pAKT level,IR signaling [1]; [6],significantly increased
same,pERK level,IR signaling [1]; [6],less potent; also recorded: not in the skeletal muscle
same,pY IR level,IR signaling [1]; [6],significantly increased
same,pAKT,IR signaling [2],increased
same,pERK,IR signaling [2],increased
same,pY IR,IR signaling [2],increased
same,body weight gain,[3],gained less than control mice
same,weight gain and fat mass,"[3]; FIG. 11, preliminary data",reduces weight gain and fat mass relative to insulin
same,IR signaling,MCF7,failed to activate
